Assay results as given in patent publication US8835377B2, “Oral delivery of peptide pharmaceutical compositions” (UGP Therapeutics, Inc., priority 2004, dated 2014).

Experiment: Pharmacokinetics after oral capsules (sCT plus Dmt-DALDA with citric acid and lauroyl carnitine), non-enteric coated or enteric coated, in fasted beagle dogs (plasma; ELISA for sCT, HPLC-MS for Dmt-DALDA)
Format: in vivo
Procedure: A second series of tests was carried out, as noted above, using beagle dogs. […] In the experiments represented in FIGS. 2A and 2B, size 00 […] capsules were each filled with 758 mg of a powdered blend consisting of citric acid (643 mg), lauroyl carnitine (66 mg), talc (33 mg), salmon calcitonin (sCT) (13 mg) and Dmt-DALDA (2.4 mg). Half of the capsules were coated with an enteric coating solution of L30D-55, while the remaining 50% of the capsules were not coated. Four fasted dogs were each given 1 uncoated capsule, and 2 weeks later they were each given an enteric coated capsule. After administration of each capsule, samples of blood were taken at 15 minute intervals from an indwelling catheter for up to 4 hours. The blood samples were centrifuged and the resulting plasma supernatants were stored frozen at −20° C. The plasma samples were subsequently analyzed for sCT by a direct ELISA, and for Dmt-DALDA by HPLC-mass spectrometry performed as set forth in Wan, H. and Desiderio, D., Quantitation of [DMT^1] DALDA in ovine plasma by on-line liquid chromatography/quadrapole time-of-flight mass spectrometry, Rapid Communications in Mass Spectrometry, 2003; 17, 538-546, the contents of which are incorporated herein by reference.
The results summarized in FIGS. 2A and 2B as plasma peptide concentration normalized to a 1 mg dose as a function of time relative to the average Tmax, (i.e., the time at which the maximum amount of peptide was detected) indicate that both peptides, i.e., sCT and Dmt-DALDA, were detected in dogs given uncoated or enteric coated capsules. […] Table DI (below) sets forth the values upon which the curves in FIGS. 2A and 2B are based. The results are summarized in the tables as plasma peptide concentration normalized to a 1 mg dose as a function of time. Table III, moreover, provides the standard deviations for the data obtained regarding each of the test dogs, which standard deviations are also indicated in FIGS. 2A and 2B.
Table IV (below) summarizes the pharmacokinetic parameters in dogs of orally administered sCT and Dmt-DALDA when administered in non-enteric coated versus enteric coated capsules. Peptide was not detected from 1 dog in each group due to (a) Dog 3 vomiting the uncoated capsule and (b) delayed gastric emptying in Dog 2 provided with an enteric coated capsule. Cmax and AUC are as defined with regard to Table H above.

## Cc1cc(O)cc(C)c1C[C@H](N)C(=O)N[C@H](CCCNC(=N)N)C(=O)N[C@@H](Cc1ccccc1)C(=O)N[C@@H](CCCCN)C(N)=O [Dmt-DALDA, H-2,6-dimethyltyrosine-D-Arginine-Phenylalanine-Lysine-NH2]
Enteric coated capsule, Dog 3, 45 min
  plasma peptide concentration normalized to a 1 mg dose: 0 pg/mL
Enteric coated capsule, Dog 3, 60 min
  plasma peptide concentration normalized to a 1 mg dose: 0 pg/mL
Enteric coated capsule, Dog 3, 75 min
  plasma peptide concentration normalized to a 1 mg dose: 0 pg/mL
Enteric coated capsule, Dog 3, 90 min
  plasma peptide concentration normalized to a 1 mg dose: 0 pg/mL
Enteric coated capsule, Dog 3, 105 min
  plasma peptide concentration normalized to a 1 mg dose: 0 pg/mL
Enteric coated capsule, Dog 3, 120 min
  plasma peptide concentration normalized to a 1 mg dose: 0 pg/mL
Enteric coated capsule, Dog 3, 135 min
  plasma peptide concentration normalized to a 1 mg dose: 21494 pg/mL
Enteric coated capsule, Dog 3, 150 min
  plasma peptide concentration normalized to a 1 mg dose: 19378 pg/mL
Enteric coated capsule, Dog 3, 165 min
  plasma peptide concentration normalized to a 1 mg dose: 12697 pg/mL
Enteric coated capsule, Dog 3, 180 min
  plasma peptide concentration normalized to a 1 mg dose: 9100 pg/mL
Enteric coated capsule, Dog 3, 195 min
  plasma peptide concentration normalized to a 1 mg dose: 4876 pg/mL
Enteric coated capsule, Dog 4, 0 min
  plasma peptide concentration normalized to a 1 mg dose: 0 pg/mL
Enteric coated capsule, Dog 4, 15 min
  plasma peptide concentration normalized to a 1 mg dose: 0 pg/mL
Enteric coated capsule, Dog 4, 30 min
  plasma peptide concentration normalized to a 1 mg dose: 0 pg/mL
Enteric coated capsule, Dog 4, 45 min
  plasma peptide concentration normalized to a 1 mg dose: 0 pg/mL
Enteric coated capsule, Dog 4, 60 min
  plasma peptide concentration normalized to a 1 mg dose: 0 pg/mL
Enteric coated capsule, Dog 4, 75 min
  plasma peptide concentration normalized to a 1 mg dose: 0 pg/mL
Enteric coated capsule, Dog 4, 90 min
  plasma peptide concentration normalized to a 1 mg dose: 0 pg/mL
Enteric coated capsule, Dog 4, 105 min
  plasma peptide concentration normalized to a 1 mg dose: 4577 pg/mL
Enteric coated capsule, Dog 4, 120 min
  plasma peptide concentration normalized to a 1 mg dose: 12116 pg/mL
Enteric coated capsule, Dog 4, 135 min
  plasma peptide concentration normalized to a 1 mg dose: 10207 pg/mL
Enteric coated capsule, Dog 4, 150 min
  plasma peptide concentration normalized to a 1 mg dose: 6307 pg/mL
Enteric coated capsule, Dog 4, 165 min
  plasma peptide concentration normalized to a 1 mg dose: 5158 pg/mL
Enteric coated capsule, Dog 4, 180 min
  plasma peptide concentration normalized to a 1 mg dose: 3884 pg/mL
Enteric coated capsule, Dog 4, 195 min
  plasma peptide concentration normalized to a 1 mg dose: 2896 pg/mL
non-enteric coated capsule, Dog 1, 45 min
  plasma peptide concentration normalized to a 1 mg dose: 5104 pg/mL
non-enteric coated capsule, Dog 1, 60 min
  plasma peptide concentration normalized to a 1 mg dose: 4066 pg/mL
non-enteric coated capsule, Dog 1, 75 min
  plasma peptide concentration normalized to a 1 mg dose: 2407 pg/mL
non-enteric coated capsule, Dog 1, 90 min
  plasma peptide concentration normalized to a 1 mg dose: 2780 pg/mL
non-enteric coated capsule, Dog 1, 105 min
  plasma peptide concentration normalized to a 1 mg dose: 1938 pg/mL
non-enteric coated capsule, Dog 1, 120 min
  plasma peptide concentration normalized to a 1 mg dose: 1627 pg/mL
non-enteric coated capsule, Dog 1, 135 min
  plasma peptide concentration normalized to a 1 mg dose: 1158 pg/mL
non-enteric coated capsule, Dog 1, 150 min
  plasma peptide concentration normalized to a 1 mg dose: 830 pg/mL
non-enteric coated capsule, Dog 1, 165 min
  plasma peptide concentration normalized to a 1 mg dose: 913 pg/mL
non-enteric coated capsule, Dog 1, 180 min
  plasma peptide concentration normalized to a 1 mg dose: 705 pg/mL
non-enteric coated capsule, Dog 1, 195 min
  plasma peptide concentration normalized to a 1 mg dose: 581 pg/mL
non-enteric coated capsule, Dog 1, 210 min
  plasma peptide concentration normalized to a 1 mg dose: 544 pg/mL
non-enteric coated capsule, Dog 1, 225 min
  plasma peptide concentration normalized to a 1 mg dose: 436 pg/mL
non-enteric coated capsule, Dog 1, 240 min
  plasma peptide concentration normalized to a 1 mg dose: 402 pg/mL
non-enteric coated capsule, Dog 2, 45 min
  plasma peptide concentration normalized to a 1 mg dose: 5602 pg/mL
non-enteric coated capsule, Dog 2, 60 min
  plasma peptide concentration normalized to a 1 mg dose: 5726 pg/mL
non-enteric coated capsule, Dog 2, 75 min
  plasma peptide concentration normalized to a 1 mg dose: 4523 pg/mL
non-enteric coated capsule, Dog 2, 90 min
  plasma peptide concentration normalized to a 1 mg dose: 3568 pg/mL
non-enteric coated capsule, Dog 2, 105 min
  plasma peptide concentration normalized to a 1 mg dose: 3444 pg/mL
non-enteric coated capsule, Dog 2, 120 min
  plasma peptide concentration normalized to a 1 mg dose: 2614 pg/mL
non-enteric coated capsule, Dog 2, 135 min
  plasma peptide concentration normalized to a 1 mg dose: 2697 pg/mL
non-enteric coated capsule, Dog 2, 150 min
  plasma peptide concentration normalized to a 1 mg dose: 2407 pg/mL
non-enteric coated capsule, Dog 2, 165 min
  plasma peptide concentration normalized to a 1 mg dose: 2531 pg/mL
non-enteric coated capsule, Dog 2, 180 min
  plasma peptide concentration normalized to a 1 mg dose: 2075 pg/mL
non-enteric coated capsule, Dog 2, 195 min
  plasma peptide concentration normalized to a 1 mg dose: 1328 pg/mL
non-enteric coated capsule, Dog 2, 210 min
  plasma peptide concentration normalized to a 1 mg dose: 1867 pg/mL
non-enteric coated capsule, Dog 2, 225 min
  plasma peptide concentration normalized to a 1 mg dose: 1535 pg/mL
non-enteric coated capsule, Dog 2, 240 min
  plasma peptide concentration normalized to a 1 mg dose: 1494 pg/mL
non-enteric coated capsule, Dog 4, 45 min
  plasma peptide concentration normalized to a 1 mg dose: 5788 pg/mL
non-enteric coated capsule, Dog 4, 60 min
  plasma peptide concentration normalized to a 1 mg dose: 4481 pg/mL
non-enteric coated capsule, Dog 4, 75 min
  plasma peptide concentration normalized to a 1 mg dose: 2934 pg/mL
non-enteric coated capsule, Dog 4, 90 min
  plasma peptide concentration normalized to a 1 mg dose: 2382 pg/mL
non-enteric coated capsule, Dog 4, 105 min
  plasma peptide concentration normalized to a 1 mg dose: 3054 pg/mL
non-enteric coated capsule, Dog 4, 120 min
  plasma peptide concentration normalized to a 1 mg dose: 1759 pg/mL
non-enteric coated capsule, Dog 4, 135 min
  plasma peptide concentration normalized to a 1 mg dose: 1627 pg/mL
non-enteric coated capsule, Dog 4, 150 min
  plasma peptide concentration normalized to a 1 mg dose: 1544 pg/mL
non-enteric coated capsule, Dog 4, 165 min
  plasma peptide concentration normalized to a 1 mg dose: 1324 pg/mL
non-enteric coated capsule, Dog 4, 180 min
  plasma peptide concentration normalized to a 1 mg dose: 1191 pg/mL
non-enteric coated capsule, Dog 4, 195 min
  plasma peptide concentration normalized to a 1 mg dose: 851 pg/mL
non-enteric coated capsule, Dog 4, 210 min
  plasma peptide concentration normalized to a 1 mg dose: 722 pg/mL
non-enteric coated capsule, Dog 4, 225 min
  plasma peptide concentration normalized to a 1 mg dose: 672 pg/mL
non-enteric coated capsule, Dog 4, 240 min
  plasma peptide concentration normalized to a 1 mg dose: 556 pg/mL
